pIC50: −log10 of the molar value.

Chain of CSF-1R (P07333 20-972): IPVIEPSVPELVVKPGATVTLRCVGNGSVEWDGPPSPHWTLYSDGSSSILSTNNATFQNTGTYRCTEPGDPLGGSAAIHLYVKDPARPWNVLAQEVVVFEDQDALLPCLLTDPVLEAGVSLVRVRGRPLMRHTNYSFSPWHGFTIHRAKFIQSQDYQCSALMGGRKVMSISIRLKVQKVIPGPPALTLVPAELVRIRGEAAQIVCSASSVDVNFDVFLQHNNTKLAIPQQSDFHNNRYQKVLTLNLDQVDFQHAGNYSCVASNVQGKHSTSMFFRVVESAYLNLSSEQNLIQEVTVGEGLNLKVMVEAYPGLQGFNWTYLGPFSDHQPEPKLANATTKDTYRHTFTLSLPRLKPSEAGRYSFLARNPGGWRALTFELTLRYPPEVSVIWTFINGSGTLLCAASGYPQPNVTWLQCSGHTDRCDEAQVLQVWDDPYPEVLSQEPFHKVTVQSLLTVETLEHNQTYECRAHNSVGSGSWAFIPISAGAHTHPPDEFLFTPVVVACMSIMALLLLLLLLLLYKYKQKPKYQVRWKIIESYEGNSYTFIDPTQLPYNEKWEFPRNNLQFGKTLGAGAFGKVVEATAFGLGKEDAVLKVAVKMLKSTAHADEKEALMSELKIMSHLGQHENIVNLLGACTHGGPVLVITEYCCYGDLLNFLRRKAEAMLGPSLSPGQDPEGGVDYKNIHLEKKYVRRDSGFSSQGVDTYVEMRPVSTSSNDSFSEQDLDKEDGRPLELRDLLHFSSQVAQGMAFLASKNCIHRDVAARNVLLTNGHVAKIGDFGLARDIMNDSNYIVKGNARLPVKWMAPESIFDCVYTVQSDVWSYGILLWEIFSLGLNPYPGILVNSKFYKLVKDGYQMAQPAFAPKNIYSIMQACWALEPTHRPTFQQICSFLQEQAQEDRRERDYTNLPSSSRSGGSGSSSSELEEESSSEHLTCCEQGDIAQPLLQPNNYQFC

The target in one test is CSF-1R (Homo sapiens, UniProt P07333). Put plainly: Peptide (non-phosphorylated) assay, fluorescence polarization competition immunoassay. The format is biochemical. The note with it: 0.7 nM CSF-1R, 308 μM SYEGNSYTFIDPTQ peptide, 1 mM ATP, 80 min; mean of at least three determinations; read-out: c-fms Peptide IC50. An outline of the steps:
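Human CSF-1R kinase reaction started with ATP and run 80 min at room temperature, then stopped with EDTA. Phosphopeptide detected by fluorescence polarization competition using anti-phosphotyrosine antibody and PTK green tracer after 30 min. Controls used 4% DMSO, with EDTA added before reaction start for positive controls.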
In general, pIC50 refers to −log10 of the IC50, conventionally taken in molar units. On to `CCN1CCC(Oc2ccc(Nc3ncc4c(=O)c(C(=O)NOC)cn(-c5ccc6c(c5)CCC6)c4n3)cc2)CC1` [Cpd 312, 2-[4-(1-ethyl-piperidin-4-yloxy)-phenylamino]-8-indan-5-yl-5-oxo-5,8-dihydro-pyrido[2,3-d]pyrimidine-6-carboxylic acid methoxy-amide], for which the pIC50 was 9.70.
The same measure, in the same setting: with `CONC(=O)c1cn(-c2ccc3c(c2)CCC3)c2nc(Nc3ccc(CCNC4C5CC6CC(C5)CC4C6)cc3)ncc2c1=O` (stereo not drawn) [Cpd 107, 2-{4-[2-(adamantan-2-ylamino)-ethyl]-phenylamino}-8-indan-5-yl-5-oxo-5,8-dihydro-pyrido[2,3-d]pyrimidine-6-carboxylic acid methoxy-amide] the figure was 8.82; with `CONC(=O)c1cn(-c2ccc(OC(F)(F)F)cc2)c2nc(Nc3ccc(C4CCN(S(N)(=O)=O)CC4)cc3)ncc2c1=O` [Cpd 177, 5-oxo-2-[4-(1-sulfamoyl-piperidin-4-yl)-phenylamino]-8-(4-trifluoromethoxyphenyl)-5,8-dihydropyrido[2,3-d]pyrimidine-6-carboxylic acid methoxy-amide], 8.18.
In the case of `CONC(=O)c1cn(-c2ccc3c(c2)CCC3)c2nc(Nc3ccc(CC(=O)N4CCN(C)CC4)cc3)ncc2c1=O` [Cpd 152, 8-indan-5-yl-2-{4-[2-(4-methylpiperazin-1-yl)-2-oxo-ethyl]-phenylamino}-5-oxo-5,8-dihydro-pyrido[2,3-d]pyrimidine-6-carboxylic acid methoxy-amide], the negative logarithm of the IC50 (pIC50) is 8.82.
Regarding `CCc1ccc(-n2cc(C(=O)NOC)c(=O)c3cnc(Nc4ccc5c(c4)N(C(C)=O)CC5)nc32)cc1` [Cpd 281, 2-(1-acetyl-2,3-dihydro-1H-indol-6-ylamino)-8-(4-ethyl-phenyl)-5-oxo-5,8-dihydro-pyrido[2,3-d]pyrimidine-6-carboxylic acid methoxy-amide], the pIC50 was 8.82.
For the compound `CCc1ccc(-n2cc(C(=O)NOC)c(=O)c3cnc(Nc4ccc5c(ccn5C)c4)nc32)cc1` [Cpd 290, 8-(4-ethyl-phenyl)-2-(1-methyl-1H-indol-5-ylamino)-5-oxo-5,8-dihydro-pyrido[2,3-d]pyrimidine-6-carboxylic acid methoxy-amide], the pIC50 is 9.05.
On the same count and under the same terms, to `CONC(=O)c1cn(-c2ccc(F)c(Cl)c2)c2nc(Nc3ccc(CCN4CCN(C)CC4)cc3)ncc2c1=O` [Cpd 4, 8-(3-chloro-4-fluoro-phenyl)-2-{4-[2-(4-methyl-piperazin-1-yl)-ethyl]-phenylamino}-5-oxo-5,8-dihydro-pyrido[2,3-d]pyrimidine-6-carboxylic acid methoxy amide] belongs 8.66; to `CONC(=O)c1cn(-c2ccc3c(c2)CCC3)c2nc(Nc3ccc(CCN4CCCC(F)C4)cc3)ncc2c1=O` (stereo not drawn) [Cpd 256, 2-{4-[2-(3-fluoro-piperidin-1-yl)-ethyl]-phenylamino}-8-indan-5-yl-5-oxo-5,8-dihydro-pyrido[2,3-d]pyrimidine-6-carboxylic acid methoxy-amide], 9.06; to `CONC(=O)c1cn(C2CCCCC2)c2nc(Nc3ccc(C[C@H]4COC(=O)N4)cc3)ncc2c1=O` [Cpd 22, (S)-8-cyclohexyl-5-oxo-2-[4-(2-oxo-oxazolidin-4-ylmethyl)-phenylamino]-5,8-dihydro-pyrido[2,3-d]pyrimidine-6-carboxylic acid methoxy-amide], 8.82.
With `CCc1ccc(-n2cc(C(=O)NOC)c(=O)c3cnc(Nc4ccc5c(c4)CCN5S(C)(=O)=O)nc32)cc1` [Cpd 280, 8-(4-ethyl-phenyl)-2-(1-methanesulfonyl-2,3-dihydro-1H-indol-5-ylamino)-5-oxo-5,8-dihydro-pyrido[2,3-d]pyrimidine-6-carboxylic acid methoxy-amide], the pIC50 is 9.40.
On to `CN1CCN(c2ccc(Nc3ncc4c(=O)c(C(N)=O)cn(Cc5ccccc5)c4n3)cc2)CC1` [Cpd 114, 8-benzyl-2-[4-(4-methyl-piperazin-1-yl)-phenylamino]-5-oxo-5,8-dihydro-pyrido[2,3-d]pyrimidine-6-carboxylic acid amide], for which the negative-log IC50 (pIC50) was 8.02.
On the same count and under the same terms, with `CCc1ccc(-n2cc(C(=O)NOC(C)C)c(=O)c3cnc(Nc4ccc(C5CCNCC5)cc4)nc32)cc1` [Cpd 58, 8-(4-ethyl-phenyl)-5-oxo-2-(4-piperidin-4-yl-phenylamino)-5,8-dihydro-pyrido[2,3-d]pyrimidine-6-carboxylic acid isopropoxy-amide] the figure was 8.80; with `CN1CCN(CCc2ccc(Nc3ncc4c(=O)c(C(N)=O)cn(-c5ccc(F)c(Cl)c5)c4n3)cc2)CC1` [Cpd 3, 8-(3-chloro-4-fluoro-phenyl)-2-{4-[2-(4-methyl-piperazin-1-yl)-ethyl]-phenylamino}-5-oxo-5,8-dihydro-pyrido[2,3-d]pyrimidine-6-carboxylic acid amide], 7.55.
Still for that read-out and setting: with `CONC(=O)c1cn(-c2ccc3c(c2)CCC3)c2nc(Nc3ccc(C4CCN(CC(=O)O)CC4)cc3)ncc2c1=O` [Cpd 219, {4-[4-(8-indan-5-yl-6-methoxycarbamoyl-5-oxo-5,8-dihydro-pyrido[2,3-d]pyrimidin-2-ylamino)-phenyl]-piperidin-1-yl}-acetic acid] the figure was 8.66; with `CONC(=O)c1cn(-c2ccc3c(c2)CCC3)c2nc(Nc3cccc(C4(O)CCCNC4)c3)ncc2c1=O` (stereo not drawn) [Cpd 275, 2-[3-(3-hydroxy-piperidin-3-yl)-phenylamino]-8-indan-5-yl-5-oxo-5,8-dihydro-pyrido[2,3-d]pyrimidine-6-carboxylic acid methoxy-amide], 9.18.
For the compound `CN1CCN(CCc2ccc(Nc3ncc4c(=O)c(C(N)=O)cn(-c5ccc(Cl)cc5)c4n3)cc2)CC1` [Cpd 33, 8-(4-chloro-phenyl)-2-{4-[2-(4-methyl-piperazin-1-yl)-ethyl]-phenylamino}-5-oxo-5,8-dihydro-pyrido[2,3-d]pyrimidine-6-carboxylic acid amide], the pIC50 was 7.70.
On to `CCc1ccc(-n2cc(C(=O)NOC)c(=O)c3cnc(Nc4ccccc4)nc32)cc1` [Cpd 316, 8-(4-ethyl-phenyl)-5-oxo-2-phenylamino-5,8-dihydro-pyrido[2,3-d]pyrimidine-6-carboxylic acid methoxy-amide], for which the pIC50 was 8.74.
Take `CCONC(=O)c1cn(C2CCCCC2)c2nc(Nc3ccc(C4CCN(C(C)=O)CC4)cc3)ncc2c1=O` [Cpd 29, 2-[4-(1-acetyl-piperidin-4-yl)-phenylamino]-8-cyclohexyl-5-oxo-5,8-dihydro-pyrido[2,3-d]pyrimidine-6-carboxylic acid ethoxy-amide]: the pIC50 was 9.00.
Still for that read-out and setting: with `CCONC(=O)c1cn(C2CC2)c2nc(Nc3ccc(CCN4CCCC4)cc3)ncc2c1=O` [Cpd 142, 8-cyclopropyl-5-oxo-2-[4-(2-pyrrolidin-1-yl-ethyl)-phenylamino]-5,8-dihydro-pyrido[2,3-d]pyrimidine-6-carboxylic acid ethoxy-amide] the figure was 7.18; with `CN1CCN(CCc2ccc(Nc3ncc4c(=O)c(C(=O)N5CCCCC5)cn(-c5ccc6c(c5)CCC6)c4n3)cc2)CC1` [Cpd 64, 8-indan-5-yl-2-{4-[2-(4-methyl-piperazin-1-yl)-ethyl]-phenylamino}-6-(piperidine-1-carbonyl)-8H-pyrido[2,3-d]pyrimidin-5-one], 6.74.
For the compound `CCc1ccc(-n2cc(C(=O)NOC)c(=O)c3cnc(Nc4ccc(OC5CCNCC5)cc4)nc32)cc1` [Cpd 307, 8-(4-ethyl-phenyl)-5-oxo-2-[4-(piperidin-4-yloxy)-phenylamino]-5,8-dihydro-pyrido[2,3-d]pyrimidine-6-carboxylic acid methoxy-amide], the negative-log IC50 (pIC50) is 9.40.
In the case of `CCc1ccc(-n2cc(C(=O)NOC)c(=O)c3cnc(Nc4ccc(C5CCN(CC(=O)O)CC5)cc4)nc32)cc1` [Cpd 94, (4-{4-[8-(4-ethyl-phenyl)-6-methoxycarbamoyl-5-oxo-5,8-dihydro-pyrido[2,3-d]pyrimidin-2-ylamino]-phenyl}-piperidin-1-yl)-acetic acid], the pIC50 was 9.05.
For `CCONC(=O)c1cn(C2CCCCC2)c2nc(Nc3ccc(N4CC(C)NC(C)C4)cc3)ncc2c1=O` (stereo not drawn) [Cpd 25, 8-cyclohexyl-2-[4-(3,5-dimethyl-piperazin-1-yl)-phenylamino]-5-oxo-5,8-dihydro-pyrido[2,3-d]pyrimidine-6-carboxylic acid ethoxy-amide], the negative-log IC50 (pIC50) was 8.68.
As to `CONC(=O)c1cn(C2CCCC2)c2nc(Nc3ccc(C4CCN(C(C)=O)CC4)cc3)ncc2c1=O` [Cpd 46, 2-[4-(1-acetyl-piperidin-4-yl)-phenylamino]-8-cyclopentyl-5-oxo-5,8-dihydro-pyrido[2,3-d]pyrimidine-6-carboxylic acid methoxy-amide], the pIC50 was 8.59.
Turning to `CCONC(=O)c1cn(-c2ccc(CC)cc2)c2nc(Nc3ccc(C4CCN(CCCO)CC4)cc3)ncc2c1=O` [Cpd 186, 8-(4-ethyl-phenyl)-2-{4-[1-(3-hydroxy-propyl)-piperidin-4-yl]-phenylamino}-5-oxo-5,8-dihydro-pyrido[2,3-d]pyrimidine-6-carboxylic acid ethoxy-amide], the negative-log IC50 (pIC50) was 9.22.
Regarding `CONC(=O)c1cn(-c2ccc3ccccc3c2)c2nc(Nc3ccc(C4CCN(C)CC4)cc3)ncc2c1=O` [Cpd 303, 2-[4-(1-methyl-piperidin-4-yl)-phenylamino]-8-naphthalen-2-yl-5-oxo-5,8-dihydro-pyrido[2,3-d]pyrimidine-6-carboxylic acid methoxy-amide], the pIC50 is 9.00.

Still in this test, the particulars now being: c-fms Peptide IC50, 0.7 nM CSF-1R, 308 μM SYEGNSYTFIDPTQ peptide, 1 mM ATP, 80 min; mean of at least three determinations.
`CONC(=O)c1cn(-c2ccc3c(c2)CCC3)c2nc(Nc3ccc(CCN4CCC(F)(F)CC4)cc3)ncc2c1=O` [Cpd 234, 2-{4-[2-(4,4-difluoro-piperidin-1-yl)-ethyl]-phenylamino}-8-indan-5-yl-5-oxo-5,8-dihydro-pyrido[2,3-d]pyrimidine-6-carboxylic acid methoxy-amide] showed a pIC50 of 8.77.

The record behind these values is patent US20080114007A1 (priority 2006, published 2008).
